From patent publication US10568834B2, “Delivery systems for propofol” (Yissum Research Development Company of the Hebrew …, priority 2015, dated 2020)

How the values were obtained:
[1] = Self-diffusion NMR (SD-NMR); format: physicochemical; conditions: for Diffusion coefficient of EtOH / Diffusion coefficient of PEG400 / Diffusion coefficient of PG / Diffusion coefficient of Solutol / Diffusion coefficient of the Loaded specie: B9A loaded with 1 wt % of the specie
Description: In order to determine the structure of the oil droplets (or micelles) of the microemulsions, self-diffusion NMR analysis was carried out. SD-NMR is able to locate each component within the microemulsion via measurements of its diffusion coefficient.
NMR measurements were performed with a Bruker AVII 500 spectrometer equipped with GREAT 1/10 gradients, a 5 mm BBO and a 5 mm BBI probe, both with a z-gradient coil and with a maximum gradient strength of 0.509 and 0.544 T m^−1, respectively. Diffusion was measured using an asymmetric bipolar longitudinal eddy-current delay (bpLED) experiment, or and asymmetric bipolar stimulated echo (known as one-shot) experiment with convection compensation and an asymmetry factor of 20%, ramping the strongest gradient from 2% to 95% of maximum strength in 32 steps. The spectrum was processed with the Bruker TOPSPIN software. NMR spectra were recorded at 25±0.2° C. The components were identified by their chemical shift in 1H NMR.

[2] = Microemulsion formation/appearance with propofol-like species or another surfactant; format: physicochemical; conditions: B9A loaded with 1 wt % of the specie, FIGS. 5A-5D
Description: The relationship between the surfactant and the propofol with respect to binding in the microemulsion-composition was assessed by loading B9A with 1 wt % of species similar in their structure to propofol.

[3] = B6A microemulsion, Loaded (1 wt % propofol)
[4] = B9A microemulsion, Loaded (1 wt % propofol)
[5] = Formulation with Tween 60, Loaded
[6] = Formulation with Tween 80, Loaded
[7] = Formulation with Tween 60, Unloaded
[8] = Formulation with Tween 80, Unloaded

Compound	Diffusion coefficient of EtOH [1]	Diffusion coefficient of PEG400 [1]	Diffusion coefficient of PG [1]	Diffusion coefficient of Solutol [1]	Diffusion coefficient of the Loaded specie [1]	Diffusion coefficient of the component [1, 3]	Diffusion coefficient of the component [1, 4]	further results
CC(C)c1cccc(C(C)C)c1N	94.6 ×10^−11 m^2/sec	26.2 ×10^−11 m^2/sec	44.8 ×10^−11 m^2/sec	1.76 ×10^−11 m^2/sec	2.15 ×10^−11 m^2/sec	–	–	–
CC(C)c1ccc(O)c(C(C)C)c1 [2,4-isomer]	–	–	–	–	–	–	–	Appearance of the system loaded with the specie [2]: not completely transparent
COc1ccc(O)c(C(C)(C)C)c1 [BHA]	–	–	–	–	–	–	–	Appearance of the system loaded with the specie [2]: not completely transparent
Cc1cc(C(C)(C)C)c(O)c(C(C)(C)C)c1 [BHT]	–	–	–	–	–	–	–	Appearance of the system loaded with the specie [2]: not completely transparent
CCO [Ethanol, ethanol]	–	–	–	–	–	6.91 × 10^−10 m^2/sec	9.82 × 10^−10 m^2/sec	Diffusion coefficient of the component ([1]; B6A microemulsion, Unloaded): 8.83 × 10^−10 m^2/sec; Diffusion coefficient of the component ([1]; B9A microemulsion, Unloaded): 7.65 × 10^−10 m^2/sec
CC(C)c1cccc(C(C)C)c1O [Propofol, 2,6-diisopropyl phenol]	98.2 ×10^−11 m^2/sec	26.3 ×10^−11 m^2/sec	84.5 ×10^−11 m^2/sec	1.50 ×10^−11 m^2/sec	1.54 ×10^−11 m^2/sec	1.02 × 10^−11 m^2/sec	1.54 × 10^−11 m^2/sec	Diffusion coefficient of the component [1, 5]: 1.04 × 10^−11 m^2/sec; Diffusion coefficient of the component [1, 6]: 1.73 × 10^−11 m^2/sec
CC(O)CO (stereo not shown) [Propylene glycol, propylene glycol]	–	–	–	–	–	5.22 × 10^−10 m^2/sec	8.45 × 10^−10 m^2/sec	Diffusion coefficient of the component ([1]; B6A microemulsion, Unloaded): 6.68 × 10^−10 m^2/sec; Diffusion coefficient of the component ([1]; B9A microemulsion, Unloaded): 5.96 × 10^−10 m^2/sec; Diffusion coefficient of the component [1, 5]: 3.24 × 10^−10 m^2/sec; Diffusion coefficient of the component [1, 7]: 4.96 × 10^−10 m^2/sec; Diffusion coefficient of the component [1, 6]: 4.82 × 10^−10 m^2/sec; Diffusion coefficient of the component [1, 8]: 5.43 × 10^−10 m^2/sec
CC(C)(C)c1cc(O)ccc1O [TBHQ]	–	–	–	–	–	–	–	Appearance of the system loaded with the specie [2]: classic milky emulsion
O [Water, water]	–	–	–	–	–	1.37 × 10^−9 m^2/sec	1.62 × 10^−9 m^2/sec	Diffusion coefficient of the component ([1]; B6A microemulsion, Unloaded): 1.76 × 10^−9 m^2/sec; Diffusion coefficient of the component ([1]; B9A microemulsion, Unloaded): 1.52 × 10^−9 m^2/sec; Diffusion coefficient of the component [1, 5]: 1.12 × 10^−9 m^2/sec; Diffusion coefficient of the component [1, 7]: 1.86 × 10^−9 m^2/sec; Diffusion coefficient of the component [1, 6]: 1.24 × 10^−9 m^2/sec; Diffusion coefficient of the component [1, 8]: 1.91 × 10^−9 m^2/sec
CC(C)c1ccc(O)c(C(C)C)c1 [drawing 3]	96.6 ×10^−11 m^2/sec	26.3 ×10^−11 m^2/sec	73.6 ×10^−11 m^2/sec	1.63 ×10^−11 m^2/sec	1.75 ×10^−11 m^2/sec	–	–	–
COc1ccc(O)c(C(C)(C)C)c1 [drawing 4]	91.2 ×10^−11 m^2/sec	24.5 ×10^−11 m^2/sec	78.3 ×10^−11 m^2/sec	1.75 ×10^−11 m^2/sec	1.78 ×10^−11 m^2/sec	–	–	–
Cc1cc(C(C)(C)C)c(O)c(C(C)(C)C)c1 [drawing 5]	98.2 ×10^−11 m^2/sec	24.3 ×10^−11 m^2/sec	79.1 ×10^−11 m^2/sec	1.75 ×10^−11 m^2/sec	1.58 ×10^−11 m^2/sec	–	–	–
polyethylene glycol 15-hydroxystearate [Solutol]	–	–	–	–	–	1.62 × 10^−11 m^2/sec	1.50 × 10^−11 m^2/sec	Diffusion coefficient of the component ([1]; B6A microemulsion, Unloaded): 1.45 × 10^−11 m^2/sec; Diffusion coefficient of the component ([1]; B9A microemulsion, Unloaded): 1.94 × 10^−11 m^2/sec
polysorbate 60 [Tween 60]	–	–	–	–	–	–	–	Diffusion coefficient of the component [1, 5]: 1.63 × 10^−11 m^2/sec; Diffusion coefficient of the component [1, 7]: 0.92 × 10^−11 m^2/sec
polysorbate 80 [Tween 80]	–	–	–	–	–	–	–	Diffusion coefficient of the component [1, 6]: 2.08 × 10^−11 m^2/sec; Diffusion coefficient of the component [1, 8]: 1.73 × 10^−11 m^2/sec
